According to ChEMBL document CHEMBL3856189, “Synthesis of novel diterpenoid analogs with in-vivo antitumor activity” (Eur J Med Chem, 2016):
Calls of active or inactive are those of the source. No cut-off for these calls is given here.

Columns and labels:
PC-3 = experiment: Selectivity index, ratio of IC50 for HAF cells to IC50 for human PC3 cells; type: functional
MCF7 = experiment: Selectivity index, ratio of IC50 for HAF cells to IC50 for human MCF7 cells; type: functional
Mus musculus [1] = experiment: Toxicity in nude mouse xenografted with human T47D cells assessed as diarrhoea at 20 to 40 mg/kg/day, ip administered daily for 18 days; type: organism-based; settings: in vivo, 432 h
[2] = Antiproliferative activity against human HL60 cells after 96 hrs by SRB assay; type: functional, cell-based; settings: HL-60, 96 h
[3] = Antiproliferative activity against human MDA-MB-231 cells after 96 hrs by SRB assay; type: functional, cell-based; settings: MDA-MB-231, 96 h
Mus musculus [4] = experiment: Toxicity in nude mouse xenografted with human T47D cells assessed as organ damage at 20 to 40 mg/kg/day, ip administered daily for 18 days; type: organism-based; settings: in vivo, 432 h
[5] = Antiproliferative activity against human HCT116 cells after 96 hrs by SRB assay; type: functional, cell-based; settings: HCT-116, 96 h
[6] = Selectivity index, ratio of IC50 for HAF cells to IC50 for human HT-29 cells; type: functional
[7] = Antiproliferative activity against human MCF7 cells after 96 hrs by SRB assay; type: functional, cell-based; settings: MCF7, 96 h
Mus musculus [8] = experiment: Toxicity in nude mouse xenografted with human T47D cells assessed as incidence of impaired posture or movement at 20 to 40 mg/kg/day, ip administered daily for 18 days measured every 3 days during compound dosing; type: organism-based; settings: in vivo
T47D [9] = experiment: Antimigratory activity in human T47D cells assessed as inhibition of cell migration at 20 uM after 12 hrs by crystal violet staining based transwell migration assay; type: functional
[10] = Antiproliferative activity against human DU145 cells after 96 hrs by SRB assay; type: functional, cell-based; settings: DU-145, 96 h
DU-145 = experiment: Selectivity index, ratio of IC50 for HAF cells to IC50 for human DU145 cells; type: functional
HCT-116 = experiment: Selectivity index, ratio of IC50 for HAF cells to IC50 for human HCT116 cells; type: functional
[11] = Antiproliferative activity against human PC3 cells after 96 hrs by SRB assay; type: functional, cell-based; settings: PC-3, 96 h
Mus musculus [12] = experiment: Toxicity in nude mouse xenografted with human T47D cells assessed as effect on food and water withdrawal at 20 to 40 mg/kg/day, ip administered daily for 18 days measured every 3 days during compound dosing; type: organism-based; settings: in vivo
[13] = Selectivity index, ratio of IC50 for HAF cells to IC50 for human MDA-MB-231 cells; type: functional
T47D [14] = experiment: Induction of apoptosis in human T47D cells assessed as early apoptotic cells at 10 uM after 48 hrs by Annexin V-FITC/propidium iodide staining based flow cytometry (reference value: 1.49 %); type: functional
[15] = Antitumor activity against human T47D cells xenografted in nude mouse assessed as tumor volume at 20 mg/kg/day, ip administered daily for 18 days measured every 3 days during compound dosing (reference value: 1220 +/- 127 mm3); type: functional
[16] = (§1) Inhibition of colony formation in human T47D cells after 7 days by crystal violet staining based assay; type: functional, cell-based; settings: 168 h
T47D [17] = experiment: as §1; type: functional, cell-based
[18] = Antitumor activity against human T47D cells xenografted in nude mouse assessed as tumor volume at 40 mg/kg/day, ip administered daily for 18 days measured every 3 days during compound dosing (reference value: 1220 +/- 127 mm3); type: functional
T47D [19] = experiment: Induction of apoptosis in human T47D cells assessed as early apoptotic cells at 5 uM after 48 hrs by Annexin V-FITC/propidium iodide staining based flow cytometry (reference value: 1.49 %); type: functional
[20] = Antitumor activity against human T47D cells xenografted in nude mouse assessed as tumor weight at 40 mg/kg/day, ip administered daily for 18 days measured every 3 days during compound dosing (reference value: 882 +/- 149 mg); type: functional
[21] = Antiproliferative activity against human T47D cells after 96 hrs by SRB assay; type: functional, cell-based
[22] = Antiproliferative activity against human HT-29 cells after 96 hrs by SRB assay; type: functional, cell-based; settings: HT-29, 96 h
[23] = Antitumor activity against human T47D cells xenografted in nude mouse assessed as tumor weight at 20 mg/kg/day, ip administered daily for 18 days measured every 3 days during compound dosing (reference value: 882 +/- 149 mg); type: functional
HL-60 = experiment: Selectivity index, ratio of IC50 for HAF cells to IC50 for human HL60 cells; type: functional
T47D [24] = experiment: Induction of apoptosis in human T47D cells assessed as late apoptotic cells at 20 uM after 48 hrs by Annexin V-FITC/propidium iodide staining based flow cytometry (reference value: 2.72 %); type: functional
[25] = Potency index, ratio of podophyllotoxin IC50 to compound IC50 for human T47D cells; type: functional
[26] = (§2) Antimigratory activity in human T47D cells assessed as inhibition of cell migration after 12 hrs by crystal violet staining based transwell migration assay; type: functional
T47D [27] = experiment: as §2; type: functional
Mus musculus [28] = experiment: Toxicity in nude mouse xenografted with human T47D cells assessed as body weight loss at 20 to 40 mg/kg/day, ip administered daily for 18 days measured every 3 days during compound dosing; type: organism-based; settings: in vivo
T47D [29] = experiment: Induction of apoptosis in human T47D cells assessed as late apoptotic cells at 5 uM after 48 hrs by Annexin V-FITC/propidium iodide staining based flow cytometry (reference value: 2.72 %); type: functional
[30] = Antiproliferative activity against HAF cells after 96 hrs by SRB assay; type: cell-based; settings: Homo sapiens
T47D [31] = experiment: Induction of apoptosis in human T47D cells assessed as early apoptotic cells at 20 uM after 48 hrs by Annexin V-FITC/propidium iodide staining based flow cytometry (reference value: 1.49 %); type: functional
Mus musculus [32] = experiment: Acute toxicity in nude mouse xenografted with human T47D cells assessed as effect on the survival rate at 20 to 40 mg/kg/day, ip administered daily for 18 days measured on day 18 post last dose; type: organism-based; settings: in vivo, 432 h
T47D [33] = experiment: Induction of apoptosis in human T47D cells assessed as late apoptotic cells at 10 uM after 48 hrs by Annexin V-FITC/propidium iodide staining based flow cytometry (reference value: 2.72 %); type: functional
T47D [34] = experiment: Selectivity index, ratio of IC50 for HAF cells to IC50 for human T47D cells; type: functional

In the case of COc1cc2c(cc1C(=O)Nc1ccc(N(C)C)cc1)CC[C@H]1C(C)(C)[C@@H](O)CC[C@]21C, the “Ratio IC50” value (PC-3) is reported as 13.8, the “Ratio IC50” value (MCF7) is reported as 13.8 and the Activity (Mus musculus [1]) is reported as “Non-Toxic”. For the same molecule, the IC50 [2] was 40 nM, the IC50 [3] was 320 nM and the Activity (Mus musculus [4]) was “Non-Toxic”. For the same molecule, the IC50 [5] was 570 nM, the “Ratio IC50” value [6] was 13.8 and the IC50 [7] was 280 nM. For the same molecule, the Activity (Mus musculus [8]) was “Non-Toxic”, the Activity (T47D [9]) was “Active” and the IC50 [10] was 280 nM. For the same molecule, the “Ratio IC50” value (DU-145) was 13.8, the “Ratio IC50” value (HCT-116) was 13.8 and the IC50 [11] was 540 nM. The Activity (Mus musculus [12]) was “Non-Toxic”, the “Ratio IC50” value [13] was 13.8 and the Activity (T47D [14]) was 16.86%. The Activity [15] was 654 mm3, the EC50 [16] was 2.56 nM and the Activity (T47D [17]) was “Dose-dependent effect”. It also gave an Activity [18] of 401 mm3, an Activity (T47D [19]) of 4.31% and an Activity [20] of 320 mg. For the same molecule, the IC50 [21] was 10 nM, the IC50 [22] was 590 nM and the Activity [23] was 550 mg. The “Ratio IC50” value (HL-60) was 13.8, the Activity (T47D [24]) was 1.29% and the “Ratio IC50” value [25] was 25. For the same molecule, the EC50 [26] was 6420 nM, the Activity (T47D [27]) was “Dose-dependent effect” and the Activity (Mus musculus [28]) was “Non-Toxic”. For the same molecule, the Activity (T47D [29]) was 0.49%, the IC50 [30] was 4540 nM and the Activity (T47D [31]) was 24.58%. The Activity (Mus musculus [32]) was “Non-Toxic”, the Activity (T47D [33]) was 1.09% and the “Ratio IC50” value (T47D [34]) was 13.8.
